Consider one compound from patent US10568961B2, “Photosensitising composition and its uses” (DENTSPLY SIRONA Inc., priority 2008, dated 2020).

Common to all, as to assay type: cell-based, Enterococcus faecalis
Series [1] has as its system E. faecalis biofilm in root canals. As to the kind of experiment: PDT of endodontic bacterial biofilm ex vivo (ten-week biofilm in tooth specimens). As for the experimental part: Thirty tooth blocks were prepared by removing the crown at the level of cementoenamel junction and the apical third of the root canal (˜8 mm long). All specimens were instrumented using K-files with sizes from #20 to #40. The smear layer formed during mechanical shaping was removed by rinsing the root canal with sodium hypochlorite (1%) followed by EDTA (100 mM). The prepared single-rooted tooth specimens were incubated with 50 mL of AC media inoculated with a single colony of E. faecalis as described elsewhere (George S and Kishen A, J Biomed Opt, 2000). Incubation was carried out for ten weeks at 37° C. with periodical replacement of growth media under constant shaking (120 rpm). After the incubation period, the tooth specimens were randomly divided into five groups and were treated as follows:
Group 2—Root canal-treatment (RCT) group (n=5): root canals were subjected to conventional cleaning and shaping procedures performed by using a sequence of endodontic file sizes (#25 to #50 K-files; Maillefer Instruments SA, Switzerland). The root canals were repeatedly irrigated with 5 mL of 5.2% sodium hypochlorite before and after instrumentation step using a 28-G needle and a syringe. Ethylenediaminetetraacetic acid (EDTA) 17% was also used at the end of instrumentation to remove the smear layer. Group 3—Conventional PDT group (n=5): root canals were subjected to minimal instrumentation (using #25 K file). These root canals were filled with 100 μM MB in water and were irradiated with 664 nm laser light with a total energy of 31.84 J/cm^2. Group 4—PF4 group (n=5): root canals were subjected to minimal instrumentation (using #25 K file) followed by PDT using PF4. Here, the root canals were filled with PF4 and were left in the dark for 10 minutes. After the sensitization period, the excess of the photosensitizing formulation was partially replaced with perfluorodecahydro naphthalene and the root canals were irradiated with 664 nm diode laser with a total fluence of 31.84 J/cm^2. Group 5—RCT+PF4 group (n=5): root canals were subjected to the conventional root canal disinfection procedure similar to the conventional RCT group (i.e. Group 2) followed by PDT using PF4.
After the specified treatment, the tooth-specimens were split open mesiodistally, and dentine shavings were collected using a round bur of 1 mm diameter held perpendicular to the root canal surface. The dentine shavings were collected at midpoint (coronoapically) from the two halves (buccal and lingual) of each root (n=12). […] Colony-forming units (CFU) were enumerated on the subsequent day, and the mean value of log10 number of bacteria and the standard error were calculated. […] The numbers of tubes positive for bacterial cells were counted against the total number of tubes.

Series [2] deals with E. faecalis bacteria (ATCC 29212) biofilm. As to the kind of experiment: Disinfection of four-week old biofilm in root canal (CFU from dentine shavings). The text has this: The institutional review board of the National University of Singapore approved the collection and use of extracted human teeth for this experiment. Thirty single rooted teeth maintained in Phosphate Buffer Saline (PBS) with similar shape and sizes were selected for the following experiment. The crown (at the level of Cemento-Enamel Junction) and the […] of the root were removed using a microslice machine (Metal Research, England) to obtain standard sized specimens of 8 mm length. The prepared tooth specimens were selected for the experiments after inspecting for any signs of cracks or damages on the cementum. The remnants of the pulp tissue were removed from the root canal using a barbed broach and the tooth specimens were autoclaved before further experiments.
A single colony of E. faecalis bacteria (ATCC 29212) culture was incubated in All Culture Broth (AC Broth) for 8 hours. The optical density of the culture was adjusted to 1 at 600 nm that corresponds to 10^9 cells/mL. The sterilized tooth specimens were placed in the AC broth (50 mL) with the bacterial culture and incubated in an orbital incubator (120 rpm) at 37° C. under aerobic conditions. The culture medium was replenished once in every two days to remove dead cells and to ensure proper growth of bacteria. After four weeks of incubation, the tooth specimens were subjected to the following experiment.
This experiment was conducted to observe the efficiency of different antimicrobial treatments on a matured root canal biofilm. After the specific incubation period, the tooth specimens were removed and washed with sterile PBS. The specimens were randomly divided into five experimental groups and treated accordingly.
Group 2 (conventional PDT): The tooth specimens in this group were subjected to conventional PDT. The root canals of the specimens were filled with 100 μM of MB (photosensitization) for 20 minutes and was irradiated immediately with 660 nm laser light for 20 minutes to attain a total energy level of 36 J (n=6). […]

Series [3] concerns E. faecalis biofilms grown on a glass cover slip. As to the kind of experiment: Structural damage to biofilm by PDT in vitro (CLSM, live/dead stain). The following applies: seven-day biofilm, 664 nm, 31.84 J/cm^2. As for the experimental part: The structural damage to biofilm caused by PDT was assessed on E. faecalis biofilms grown on a glass cover slip that was fixed covering a grove (6 mm diameter) made at the bottom part of a petri dish. E. faecalis cell suspension (100 μL containing ˜10^7 cells/mL) prepared from overnight grown culture in All-Culture (AC) media was added onto the saliva-coated glass-cover slip. Six petri dishes containing the biofilm were tested in each group. After seven days of incubation with periodical replacement of growth media, the biofilm was washed and photosensitised with either 100 μM MB in water or PF4 (MB in an emulsion produced by mixing perfluorodecahydro naphthalene:H2O2:triton-X100 in the ratio 75:24.5:0.5). These biofilms were incubated in the dark for ten minutes, after which the excess of the photosensitising formulation was partially replaced with perfluorodecahydro naphthalene and exposed to irradiation using 664 nm diode laser with a total fluence of 31.84 J/cm^2.
After the PDT, the washed biofilms were stained using 20 μL PBS containing 2 μL of live/dead stain (Molecular Probes, Eugene, Oreg., USA) and were observed using confocal laser scanning microscopy (CLSM). […] The optical sections of the biofilm structure were recorded and analyzed by using FluoView software (Olympus Corporation, Tokyo, Japan).

[4] abbreviates: after 4 hours of enrichment, compared with the control group.

`CN(C)c1ccc2nc3ccc(=[N+](C)C)cc-3sc2c1` [MB in water, Methylene blue]: in series [1] (setting [4]), the “difference in the mean viable count” value was 1.5 log10 and the “reduction in viable bacteria” value was 96.89%. For the same compound, the “% of tooth specimens positive for bacteria after 24 hours of enrichment” value in series [1] (ten-week biofilm, dentine shavings) came to 100%. Further, the “CFU (log10) after 4 hours of enrichments (±SD)” value in series [1] (ten-week biofilm, dentine shavings, control group 7.147) is 5.639 (±0.066) log10. Further, the “inactivation of bacteria” value in series [2] is reported as “failed to show significant bacterial reduction”. Moreover, the “difference in bacterial count” value in series [2] (compared to control group) was 0.38 log10. Also, the bacterial kill in series [2] (corresponds to log10 difference vs control group) is 59%. Besides, in series [3] (live/dead stain), the “viability of biofilm bacteria after PDT” value is “increased the proportion of dead cells”. The “biofilm thickness after PDT” value in series [3] (untreated biofilm 17 μm) is 12 μm.
